Literature values as cited in patent publication US20230323509A1, “Weak Acid Lixiviants for Recovery of Alkaline Earth Metals” (LIXIVIA, INC., priority 2020, published 2023).
Read-outs that look alike come from different tables or passages of the source.

[1] = acid listed without dissociation step index

pKa [1] | pKa (dissociation step (2)) | Compound | pKa (dissociation step (1))
 |  | CC(C(=O)O)C(=O)O [methylmalonic acid] | 3.07
4.83 |  | CCCCC(=O)O [pentanoic acid] | 
2.5 |  | CCC(=O)C(=O)O [2-oxobutanoic acid] | 
 | 5.64 | CC(CC(=O)O)C(=O)O (stereo not shown) [methylsuccinic acid] | 4.13
 | 4.37 | O=C(O)CC(=O)C(=O)O [oxaloacetic acid] | 2.55
2.62 |  | CC#CC(=O)O [2-butynoic acid] | 
3.89 |  | O=c1[nH]c(=O)c2[nH]c(=O)[nH]c2[nH]1 [uric acid] | 

Compound | pKa [1] | pKa (dissociation step (2)) | pKa (dissociation step (1))
CCOCC(=O)O [ethoxyacetic acid] | 3.65 |  | 
CC(O)CC(=O)O (stereo not shown) [3-hydoxybutanoic acid] | 4.7 |  | 
O=C(O)CCCC(=O)O [glutaric acid] |  | 5.42 | 4.32
